Reference: patent US20210275518A1, “METHODS OF USING REBASTINIB IN THE TREATMENT OF DISORDERS” (Deciphera Pharmaceuticals, LLC, priority 2020, published 2021)

How the values were obtained:
[1] = Pharmacokinetics of rebastinib given with paclitaxel (Part 1); assay type: in vivo, human; conditions: 50 mg BID and 100 mg BID in combination with paclitaxel
Source text: This is an open-label Phase 1b/2 multicenter study in patients with advanced or metastatic solid tumors where paclitaxel may be considered appropriate treatment. Rebastinib will be administered in combination with paclitaxel in repeated 28-day cycles to primarily assess the safety, tolerability and preliminary efficacy of the combination. Adverse events (AEs) will be assessed, and laboratory values, vital sign measurements, electrocardiograms (ECGs), ophthalmologic examinations, physical examinations and Eastern Cooperative Oncology Group (ECOG) Performance Status (PS) will be obtained to evaluate the safety and tolerability of rebastinib when administered in combination with paclitaxel. Pharmacokinetic (PK) and pharmacodynamic (PD) samples will be collected at pre-specified time points.

mesothelioma = experiment: Phase 1b/2 rebastinib + paclitaxel, Part 1 patient with mesothelioma; assay type: in vivo, human; conditions: one patient; 50 mg BID rebastinib + paclitaxel 80 mg/m^2, reduced at Cycle 4 to 25 mg BID + 60 mg/m^2; two prior lines carboplatin and alimta; Cycle 8, Day 1
Experimental: The study consists of two parts (Part 1 and Part 2). In Part 1, patients were assigned to one of two pre-defined dose levels of rebastinib (50 or 100 mg BID) in combination with paclitaxel administered by intravenous (IV) infusion at 80 mg/m^2. Paclitaxel is to be administered by IV infusion at 80 mg/m^2 over approximately 60 minutes on Day 1, Day 8 and Day 15 of repeated 28-day cycles. Rebastinib is to be administered orally prior to the paclitaxel infusion.
Part 1 included treatment of a patient with mesothelioma with 50 mg BID rebastinib and paclitaxel at 80 mg/m^2. The patient had two prior lines of treatment with carboplatin and alimta.

[2] = system: triple negative breast cancer; experiment: Phase 1b/2 rebastinib + paclitaxel, Part 2 Cohort 1 (RECIST v1.1); assay type: in vivo, human
Source text: (§1) Upon determination of the RP2D, Part 2 is initiated to dose up to 165 evaluable patients using the RP2D across five indication-specific cohorts. A Simon's two-stage design is applied to Part 2 to further evaluate the safety, tolerability, and preliminary efficacy of rebastinib in combination with paclitaxel in triple-negative breast (Cohort 1), inflammatory breast (Cohort 2), ovarian (Cohort 3), endometrial adenocarcinoma (Cohort 4), and gynecologic carcinosarcoma (Cohort 5) cancers. Each cohort initially enrolls up to 18 evaluable patients in the first stage. Patients must receive at least 1 dose of the combination and have 1 post-baseline assessment (including assessment of clinical progression) or be discontinued prior to the postbaseline disease assessment due to an AE at least possibly related to rebastinib, to be considered evaluable. Tumor response is assessed according to Response Evaluation Criteria in Solid Tumors (RECIST) Version 1.1. The decision to enroll patients beyond the first stage is based on response assessments obtained after the first post-dose response assessment of the last patient enrolled in the first stage of a cohort. […] If ≤4 responses are seen in a cohort, the cohort will be terminated. If >4 responses are seen prior to the last evaluable patient in the first stage, expanding the cohort may be triggered earlier. Enrollment in each cohort will pause between the first and second stage of the Simon two-stage for evaluation of response. Patients will receive study treatment until they develop progressive disease, experience unacceptable toxicity, or withdraw consent.

ovarian cancer = experiment: Phase 1b/2 rebastinib + paclitaxel, Part 2 Cohort 3 (RECIST v1.1, CA-125 response); assay type: in vivo, human
Source text: as §1
29 patients with ovarian cancer were enrolled in this portion of the study as a safety population. Patients were treated with rebastinib (50 or 100 mg BID) in combination with 80 mg/m^2 intravenous weekly paclitaxel (day 1, day 8, and day 15 of repeated 28-day cycles). 10 of the patients treated with rebastinib were at a starting dose of 100 mg BID and 80 mg/m^2 weekly paclitaxel, of which the doses of 7 were reduced to 50 mg BID and 80 mg/m^2 weekly paclitaxel, and […] were at a starting dose of 50 mg BID and 80 mg/m^2 weekly paclitaxel. 23 (79%) patients received ≥4 prior anticancer regimens, and all patients received prior platinum and taxane-based therapy; 89% received anti-angiogenic therapy, 62% received anti-PARP therapy, and 31% received immunotherapy.
24 of the 29 patients met the modified intention-to-treat (mITT) criteria. Anti-tumor activity was assessed using RECIST v1.1 and Gynecological Cancer Intergroup CA-125 response. From 24 patients in the mITT population, the objective response rate was 38% and the clinical benefit rate at 8 weeks was 88%.
38 patients in a platinum-resistant ovarian cancer cohort were enrolled in this portion of the study as a safety population. Patients were treated with rebastinib (50 or 100 mg BID) in combination with 80 mg/m^2 intravenous weekly paclitaxel (day 1, day 8, and day 15 of repeated 28-day cycles). 34 of the 38 patients met the met the modified intention-to-treat (mITT) criteria. 27 (71%) patients received ≥4 prior anticancer regimens, and 97% patients received prior platinum and taxane-based therapy; 84% received bevacizumab, 66% received a PARP inhibitor, 31% received immunotherapy, and the average number of lines of therapy after platinum resistance was 2.

[3] = system: Low Passage Champions TUMORGRAFT Models of Human Mesothelioma; experiment: Preclinical rebastinib/carboplatin combination efficacy in mesothelioma PDx models; assay type: in vivo, immunocompromised mice; conditions: Model 2; 25 mg/kg rebastinib intraperitoneal + 20 mg/kg carboplatin intravenous
Experimental: This study was conducted to obtain preclinical evidence of rebastinib/carboplatin combination efficacy in mesothelioma to support clinical development. The study was an in vivo evaluation of rebastinib single agent and in combination with carboplatin (SOC), in Low Passage Champions TUMORGRAFT® Models of Human Mesothelioma in immunocompromised mice.
Mesothelioma PDx models were studied each with 8 animals per group for total of 4 groups per model. The study endpoint was when the mean tumor volume of the control reaches 1500 mm^3 or 60 days max. Terminal tumors were be collected, fixed, and embedded.

[4] = both Cycle 3, Day 1 and Cycle 5, Day 1
[5] = Cohort 3, time point 1, of the twelve with stable disease at Cycle 3, Day 1, Cycle 5, Day 1
[6] = Cohort 3, time point 1, rebastinib + paclitaxel, Cycle 3, Day 1
[7] = Cohort 3, time point 2, 17 evaluable patients
[8] = Table 1, Cohort 3, time point 4, mITT N = 34, patients (%)
[9] = Table 1, Cohort 3, time point 4, n 12

CNC(=O)c1cc(Oc2ccc(NC(=O)Nc3cc(C(C)(C)C)nn3-c3ccc4ncccc4c3)c(F)c2)ccn1 [rebastinib]
Exposure to rebastinib [1]: dose proportional | Tumor response (mesothelioma): partial response | Patients with stable disease ([2]; Cycle 3, Day 1): one | Patients with partial response ([2]; Cycle 8, Day 1): one | Patients with partial response [2, 4]: one | Patients with stable disease [2, 4]: two | Patients with partial response (ovarian cancer; [5]): three | Patients with stable disease (ovarian cancer; [5]): four | Patients with partial response (second statement) (ovarian cancer; Cohort 3, time point 1, of the twelve with stable disease at Cycle 3, Day 1, Cycle 5, Day 1 (stated a second time)): one | Patients with stable disease (ovarian cancer; Cohort 3, time point 1, of the twelve with stable disease at Cycle 3, Day 1, Cycle 5, Day 8): one | Patients with stable disease (ovarian cancer; Cohort 3, time point 1, of the twelve with stable disease at Cycle 3, Day 1, Cycle 8, Day 1): two | Patients with partial response (ovarian cancer; Cohort 3, time point 1, of the two with partial response at Cycle 3, Day 1, Cycle 5, Day 1): one | Patients with partial response (ovarian cancer; [6]): Two | Patients with stable disease (ovarian cancer; [6]): twelve | CBR (ovarian cancer; [7]): 82% | ORR (ovarian cancer; [7]): 29% | Stable diseases (ovarian cancer; [7]): 9 | Partial responses (ovarian cancer; Cohort 3, time point 2, 17 evaluable patients, rebastinib 100 or 50 mg BID + paclitaxel): 5 | Muscular weakness, patients (ovarian cancer; Cohort 3, time point 2, initially 100 mg BID rebastinib (10 patients)): 4 patients | Muscular weakness at reduced dose (ovarian cancer; Cohort 3, time point 2, reduced dose of 50 mg BID): No additional muscular weakness | CA-125 response, patients (ovarian cancer; Cohort 3, time point 3, 17 patients with CA-125 measurements): 10 (59%) | Clinical benefit rate at 8 weeks (ovarian cancer; Cohort 3, time point 3, 24 patients mITT): 88% | Objective response rate (ovarian cancer; Cohort 3, time point 3, 24 patients mITT, rebastinib 50 or 100 mg BID with weekly paclitaxel 80 mg/m^2): 38% | CA-125 response (ovarian cancer; Cohort 3, time point 4, 17 of 26 evaluable patients): 65.4% | Clinical benefit rate at 8 weeks (ovarian cancer; Cohort 3, time point 4, 34 patients mITT): 88% | Objective response rate (confirmed+unconfirmed) (ovarian cancer; Cohort 3, time point 4, platinum-resistant ovarian cancer, 34 patients mITT, rebastinib 50 or 100 mg BID with weekly paclitaxel 80 mg/m^2): 35% | Best Overall Response: Confirmed Partial Response (ovarian cancer; [8]): 5 (14.7%) | Best Overall Response: Not Evaluable (ovarian cancer; [8]): 3 (8.8%) | Best Overall Response: Partial Response (ovarian cancer; [8]): 12 (35.3%) | Best Overall Response: Progressive Disease (ovarian cancer; [8]): 1 (2.9%) | Best Overall Response: Single Response Awaiting Confirmation (ovarian cancer; [8]): 4 (11.8%) | Best Overall Response: Stable Disease (ovarian cancer; [8]): 18 (52.9%) | Best Overall Response: Unconfirmed Single Response (ovarian cancer; [8]): 3 (8.8%) | Duration of Response, Events (%) (ovarian cancer; [9]): 5 (41.7%) | Time to Response, Mean (SD) (ovarian cancer; [9]): 3.1 (1.3) | Duration of Response, Kaplan-Meier Median (80% CI) (ovarian cancer; Table 1, Cohort 3, time point 4, n 12, NE: Not evaluated): 5.5 (1.9, NE) | Tumor inhibition [3]: 38%
